According to US20100267952A1, “USE OF NOVEL COMPOUND HAVING AFFINITY FOR AMYLOID, AND PROCESS FOR PRODUCTION OF THE SAME” (NIHON MEDI-PHYSICS CO., LTD., priority 2007, published 2010):

Experiments:
[1] = Transferability into brain and clearance (2); format: in vivo, male Wistar rats; settings: rats, intravenous injection, Table 1-10
Procedure: 0.05 mL each of these solutions was injected under thiopental anesthesia into the tail vein of respective Wistar rats (7-week old). The rats were sacrificed by bleeding from abdominal artery, and brains were removed and subjected to measurement of mass of brains and further subjected to measurement of radioactivity (hereinafter referred to as A in this Example) with a single channel analyzer (detector type: SP-20 manufactured by OHYO KOKEN KOGYO Co., Ltd.) 2, 5, 30 and 60 minutes after the injection. Also, radioactivity (hereinafter referred to as B in this Example) of the rest of the whole body was measured in the same manner as above. Using these measurement results, radioactive distribution per unit weight of brain (% ID/g) at the respective time points were calculated in accordance with the following formula (1-7).
Three animals were used for experiment at the respective time points.

[2] = target: T1, amyloid (aggregated Aβ1-42) injected into amygdaloid nucleus (Homo sapiens, UniProt P05067); assay: Confirmation of imaging of amyloid in brain (autoradiogram of brain slice, Aβ1-42 injected rat); format: in vivo, male Wistar rat; settings: tail vein, 11-15 MBq equivalent, brain removed 60 minutes after injection
T1 construct: Aβ1-42 (Wako) was dissolved in phosphate buffer (pH 7.4); purchased Wako
Procedure: (1) Aβ1-42 (Wako) was dissolved in phosphate buffer (pH 7.4) and shaken at 37° C. for 72 hours, to obtain a 1 mg/mL suspension of aggregated Aβ (hereinafter referred to as amyloid suspension in this Example).
(2) 2.5 μL (corresponding to 25 μg) of the amyloid suspension was injected into an amygdaloid nucleus on one side of a male Wistar rat (7-week old). As a control, 2.5 μL of a phosphate buffered physiological saline solution (pH 7.4) was injected into an amygdaloid nucleus on the other side of the rat. The rats were examined 1 day after the injection of the amyloid suspension and the phosphate buffered physiological saline solution (pH 7.4).
This solution was injected under thiopental anesthesia into the rat through the tail vein (dosage: 0.5 mL, dosed radioactivity: 11-15 MBq equivalent).
(4) Brain was removed 60 minutes after the injection to prepare a brain slice of 10 μm in thickness with a microtome (type: CM3050S, manufactured by LEICA). The brain slice was exposed to an imaging plate for 20 hours, and then image analysis was carried out by use of a Bio-imaging Analyzer (type: BAS-2500; manufactured by FUJIFILM Corporation).

[3] = Radioactive distribution ratio in each organ; format: in vivo, SD rat
Procedure: 0.2 mL each of the prepared sample solution was administered under non-thiopental anesthesia into the tail vein of the above rat. The rats were sacrificed by bleeding from abdominal artery, and each organ shown in Table 3 was removed 5, 30, 60 and 180 minutes after the administration. […] Also, radioactivity of the whole body of the rat after removal of the organs (hereinafter referred to as rest of the whole body) was measured. Using these measurement results, radioactive distribution per unit weight of each organ (% ID/g) at the respective time points was calculated in accordance with the following formula (3).
Three animals were used for the experiment at the respective time points.
R^T: Radioactivity of target organ (cpm) R^S: Sum of radioactivity of all the organs (cpm) R^R: Radioactivity of the rest of the whole body (cpm) M^T: Mass of target organ (g)

[4] = SD rat, tail vein, 5 min. after administration
[5] = SD rat, tail vein, 30 min. after administration
[6] = SD rat, tail vein, 60 min. after administration
[7] = SD rat, tail vein, 180 min. after administration

T1 sequence (P05067 672-713): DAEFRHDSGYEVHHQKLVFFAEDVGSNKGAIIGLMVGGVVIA

SMILES: FCCOc1ccc(-c2cn3cc([123I])ccc3n2)cc1 [Compound I-9, 2-[4′-(2″-fluoroethoxy)phenyl]-6-[^123I]iodoimidazo[1,2-a]pyridine]
- Radioactive distribution per unit weight in brain, After 2 min. ([1]; 2 min.): 0.72 % ID/g
- Radioactive distribution per unit weight in brain, After 5 min. ([1]; 5 min.): 0.49 % ID/g
- Radioactive distribution per unit weight in brain, After 30 min. ([1]; 30 min.): 0.07 % ID/g
- Radioactive distribution per unit weight in brain, After 60 min. ([1]; 60 min.): 0.02 % ID/g
- accumulation of radioactivity in amygdaloid nucleus on the amyloid-injected side (autoradiogram) [2]: marked accumulation of radioactivity
- excretion / clearance to the outside of the body ([3]; SD rat, tail vein): biliary-excreted rapidly after the administration
- Radioactive distribution per unit weight, Adrenal gland, Average [3, 4]: 3.914 % ID/g
- Radioactive distribution per unit weight, Adrenal gland, Average [3, 5]: 0.457 % ID/g
- Radioactive distribution per unit weight, Adrenal gland, Average [3, 6]: 0.260 % ID/g
- Radioactive distribution per unit weight, Adrenal gland, Average [3, 7]: 0.017 % ID/g
- Radioactive distribution per unit weight, Blood, Average [3, 4]: 0.370 % ID/g
- Radioactive distribution per unit weight, Blood, Average [3, 5]: 0.142 % ID/g
- Radioactive distribution per unit weight, Blood, Average [3, 6]: 0.108 % ID/g
- Radioactive distribution per unit weight, Blood, Average [3, 7]: 0.074 % ID/g
- Radioactive distribution per unit weight, Bone, Average [3, 4]: 0.187 % ID/g
- Radioactive distribution per unit weight, Bone, Average [3, 5]: 0.067 % ID/g
- Radioactive distribution per unit weight, Bone, Average [3, 6]: 0.045 % ID/g
- Radioactive distribution per unit weight, Bone, Average [3, 7]: 0.032 % ID/g
- Radioactive distribution per unit weight, Brain, Average [3, 4]: 0.701 % ID/g
- Radioactive distribution per unit weight, Brain, Average [3, 5]: 0.067 % ID/g
- Radioactive distribution per unit weight, Brain, Average [3, 6]: 0.026 % ID/g
- Radioactive distribution per unit weight, Brain, Average [3, 7]: 0.007 % ID/g
- Radioactive distribution per unit weight, Heart, Average [3, 4]: 0.551 % ID/g
- Radioactive distribution per unit weight, Heart, Average [3, 5]: 0.111 % ID/g
- Radioactive distribution per unit weight, Heart, Average [3, 6]: 0.059 % ID/g
- Radioactive distribution per unit weight, Heart, Average [3, 7]: 0.030 % ID/g
- Radioactive distribution per unit weight, Kidney, Average [3, 4]: 1.114 % ID/g
- Radioactive distribution per unit weight, Kidney, Average [3, 5]: 0.560 % ID/g
- Radioactive distribution per unit weight, Kidney, Average [3, 6]: 0.302 % ID/g
- Radioactive distribution per unit weight, Kidney, Average [3, 7]: 0.108 % ID/g
- Radioactive distribution per unit weight, Large intestine, Average [3, 4]: 0.106 % ID/g
- Radioactive distribution per unit weight, Large intestine, Average [3, 5]: 0.070 % ID/g
- Radioactive distribution per unit weight, Large intestine, Average [3, 6]: 0.074 % ID/g
- Radioactive distribution per unit weight, Large intestine, Average [3, 7]: 5.241 % ID/g
- Radioactive distribution per unit weight, Liver, Average [3, 4]: 2.399 % ID/g
- Radioactive distribution per unit weight, Liver, Average [3, 5]: 0.337 % ID/g
- Radioactive distribution per unit weight, Liver, Average [3, 6]: 0.178 % ID/g
- Radioactive distribution per unit weight, Liver, Average [3, 7]: 0.067 % ID/g
- Radioactive distribution per unit weight, Lung, Average [3, 4]: 0.647 % ID/g
- Radioactive distribution per unit weight, Lung, Average [3, 5]: 0.192 % ID/g
- Radioactive distribution per unit weight, Lung, Average [3, 6]: 0.130 % ID/g
- Radioactive distribution per unit weight, Lung, Average [3, 7]: 0.074 % ID/g
- Radioactive distribution per unit weight, Marrow, Average [3, 4]: 0.815 % ID/g
- Radioactive distribution per unit weight, Marrow, Average [3, 5]: 0.075 % ID/g
- Radioactive distribution per unit weight, Marrow, Average [3, 6]: 0.000 % ID/g
- Radioactive distribution per unit weight, Marrow, Average [3, 7]: 0.000 % ID/g
- Radioactive distribution per unit weight, Muscle, Average [3, 4]: 0.239 % ID/g
- Radioactive distribution per unit weight, Muscle, Average [3, 5]: 0.052 % ID/g
- Radioactive distribution per unit weight, Muscle, Average [3, 6]: 0.031 % ID/g
- Radioactive distribution per unit weight, Muscle, Average [3, 7]: 0.016 % ID/g
- Radioactive distribution per unit weight, Pancreas, Average [3, 4]: 0.650 % ID/g
- Radioactive distribution per unit weight, Pancreas, Average [3, 5]: 0.236 % ID/g
- Radioactive distribution per unit weight, Pancreas, Average [3, 6]: 0.115 % ID/g
- Radioactive distribution per unit weight, Pancreas, Average [3, 7]: 0.073 % ID/g
- Radioactive distribution per unit weight, Small intestine, Average [3, 4]: 1.259 % ID/g
- Radioactive distribution per unit weight, Small intestine, Average [3, 5]: 6.598 % ID/g
- Radioactive distribution per unit weight, Small intestine, Average [3, 6]: 8.235 % ID/g
- Radioactive distribution per unit weight, Small intestine, Average [3, 7]: 2.657 % ID/g
- Radioactive distribution per unit weight, Spleen, Average [3, 4]: 0.442 % ID/g
- Radioactive distribution per unit weight, Spleen, Average [3, 5]: 0.092 % ID/g
- Radioactive distribution per unit weight, Spleen, Average [3, 6]: 0.069 % ID/g
- Radioactive distribution per unit weight, Spleen, Average [3, 7]: 0.037 % ID/g
- Radioactive distribution per unit weight, Stomach, Average [3, 4]: 0.287 % ID/g
- Radioactive distribution per unit weight, Stomach, Average [3, 5]: 0.619 % ID/g
- Radioactive distribution per unit weight, Stomach, Average [3, 6]: 0.672 % ID/g
- Radioactive distribution per unit weight, Stomach, Average [3, 7]: 0.812 % ID/g
- ratio (% ID/g at 5 minutes after the administration)/(% ID/g at 180 minutes after the administration) ([3]; bone): 6
- ratio (% ID/g at 5 minutes after the administration)/(% ID/g at 180 minutes after the administration) ([3]; brain): 94
- ratio (% ID/g at 5 minutes after the administration)/(% ID/g at 180 minutes after the administration) ([3]; heart): 18
- ratio (% ID/g at 5 minutes after the administration)/(% ID/g at 180 minutes after the administration) ([3]; lung): 9
- ratio (% ID/g at 5 minutes after the administration)/(% ID/g at 180 minutes after the administration) ([3]; pancreas): 9
